The nature of data set [1]: Pharmacokinetic study after a single oral administration to mice. Type of data set: in vivo. The conditions noted are these: for cmax / tmax: single oral 100 mg/kg in 0.5% methylcellulose; for clast: concentration at last sampling time point; for AUC0-inf: extrapolated to infinity; for tlast: time of last sampling time point; for AUC0-t: time zero to tlast. On the procedure:
The aim of the study was to evaluate pharmacokinetic (PK) properties of five different batches including anhydrates and monohydrates of the crystal form A of compound 1a (cf. Table 1 in Example 5) after a single oral administration to mice. Three of the forms were anhydrous and two were monohydrates.
Compound 1a was administered as a suspension of 0.5% methyl cellulose (Sigma-Aldrich) in water at a dose of 100 mg/kg (10 ml/kg) by oral gavage to non-fasted female Balb/c mice (n=3).
Blood was collected by decapitation at 0.5, 1, 2, 4, 8, 12, 24, and 48 h after administration. Blood plasma was isolated by centrifugation at 4° C. (20,000×g for 10 min), transferred to microtubes containing lithium-heparin and frozen in aliquots at −70° C. until assayed by mass-spectrometry. Mean plasma concentration-time profiles (semi-logarithmic) of the five polymorphic crystal forms of compound 1a are shown in FIG. 6.
For PK evaluation, summary statistics and plotting of concentration/time curves, all values below the lower limit of quantification (LLOQ) were set to zero.

Data set [2] relates to RBL-2H3 cells. As to the kind of experiment: Maximum tolerated concentration (cytotoxicity by lactate dehydrogenase release). Type of data set: cell-based, Rat. The conditions noted are these: for MTC (maximum tolerated concentration): highest concentration not causing cytotoxicity (LDH release), RBL-2H3 cells; for SI (safety index): ratio between MTC and IC50. An excerpt:
The safety index (SI) of a test compound is the ratio between the maximum tolerated concentration and the IC50 and is used as a measure of the relative safety of the test compound.
Background: LDH in the medium is a marker of cell lysis.

[3] abbreviates: female Balb/c mice, plasma, 100 mg/kg.
[4] abbreviates: female Balb/c mice, single oral 100 mg/kg, 100 mg/kg.
The mark [5] stands for this setting: female Balb/c mice, single oral 100 mg/kg, terminal half-life, 100 mg/kg.
[6] abbreviates: female Balb/c mice, single oral 100 mg/kg.

Like-named read-outs stand apart in the source and are kept apart here.

Take `CCCCCCCCCCCCCCCCN(C)CC(O)CS(=O)(=O)O` (centres unmarked) [2208-CF/1, 2-hydroxy-3-(N-methylhexadecylammonio)propane-sulfonate]: the overall exposure entry in data set [1] (compared among the five forms, single oral 100 mg/kg) is “highest”. In addition, in data set [1] (setting [3]), the cmax worked out at 1003 ng/mL and the tmax is listed as 1.0 h. Moreover, in data set [1] (setting [4]), the MRT (commonly the average time that molecules of a dose stay in the body) was 5.0 h, the clast came to 1.1 ng/mL, the AUC0-inf is 4412 ng·h/mL and the tlast was determined as 48.0 h. In data set [1] (setting [4]), the AUC0-t came to 4400 ng·h/mL. Further, the t1/2 in data set [1] (setting [5]) was found to be 7.3 h.
Take `CCCCCCCCCCCCCCCCN(C)CC(O)CS(=O)(=O)O` (centres unmarked) [2338-CF/30, 2-hydroxy-3-(N-methylhexadecylammonio)propane-sulfonate]: the tmax in data set [1] (setting [3]) stood at 1.0 h. Moreover, in data set [1] (setting [4]), the clast is 1.8 ng/mL and the tlast is 48.0 h. The cmax in data set [1] (female, Balb/c, mouse, plasma, po, 100 mg/kg, female Balb/c mice, plasma, read-out: cmax) came out at 1060 ng/mL. For the same molecule, the AUC0-inf in data set [1] (female, Balb/c, mouse, plasma, po, 100 mg/kg, female Balb/c mice, single oral 100 mg/kg, read-out: AUC0-inf) was 3140 ng·h/mL. The MRT in data set [1] (female, Balb/c, mouse, plasma, po, 100 mg/kg, female Balb/c mice, single oral 100 mg/kg, read-out: MRT) came out at 5.5 h. Further, the half-life (usually the time in which the quantity being followed falls by half) in data set [1] (female, Balb/c, mouse, plasma, po, 100 mg/kg, female Balb/c mice, single oral 100 mg/kg, terminal half-life) is 9.9 h. Besides, the AUC0-t in data set [1] (female, Balb/c, mouse, plasma, po, 100 mg/kg, female Balb/c mice, single oral 100 mg/kg, read-out: AUC0-t) stood at 3120 ng·h/mL.
As to `CCCCCCCCCCCCCCN(C)CC(O)CS(=O)(=O)O` (centres unmarked) [Compound 1b, 2-hydroxy-3-(N-methyltetradecylammonio)propanesulfonate], in data set [2], the “MTC (maximum tolerated concentration)” value is 100 µM and the “SI (safety index)” value came out at 19.6.
For `CCCCCCCCCCCCCC[N+](C)(C)CC(CS(=O)(=O)[O-])OC` (centres unmarked) [Compound 1d, 2-methoxy-3-(N,N-dimethyl-N-tetradecylammonio)-propane-1-sulfonate] the same measures were 75 µM and 22.7.
Regarding `CCCCCCCCCCCCCC[N+](C)(C)CC(CS(=O)(=O)[O-])OC(C)=O` (centres unmarked) [Compound 1e, 2-acetoxy-3-(N,N-dimethyltetradecylammonio)propanesulfonate], in data set [2], the “MTC (maximum tolerated concentration)” value worked out at 100 µM and the “SI (safety index)” value is given as 25.6.
In data set [1] (setting [3]), `CCCCCCCCCCCCCCCCN(C)CC(O)CS(=O)(=O)O` (centres unmarked) [KP-0722.11, 2-hydroxy-3-(N-methylhexadecylammonio)propane-sulfonate] yielded a cmax of 571 ng/mL and a tmax of 2.0 h. In data set [1] (setting [4]), the MRT is 4.8 h, the clast came out at 3.8 ng/mL, the AUC0-inf is 3179 ng·h/mL and the tlast is recorded as 24.0 h. The AUC0-t in data set [1] (setting [4]) came out at 3162 ng·h/mL.
`CCCCCCCCCCCCCCCCN(C)CC(O)CS(=O)(=O)O` (centres unmarked) [KP-0726.11, 2-hydroxy-3-(N-methylhexadecylammonio)propane-sulfonate]: the “second plasma peak (time after administration)” value in data set [1] (setting [6]) came to 8 h. In data set [1] (setting [3]), this molecule displayed a cmax of 759 ng/mL and a tmax of 1.0 h. Moreover, in data set [1] (setting [4]), the MRT was 5.5 h, the clast worked out at 1.2 ng/mL, the AUC0-inf was 3758 ng·h/mL and the tlast is listed as 48.0 h. In data set [1] (setting [4]), the AUC0-t worked out at 3744 ng·h/mL. Besides, in data set [1] (setting [5]), the t1/2 is reported as 8.2 h.
As for `CCCCCCCCCCCCCCCCN(C)CC(O)CS(=O)(=O)O` (centres unmarked) [TN-0382.11, 2-hydroxy-3-(N-methylhexadecylammonio)propane-sulfonate], in data set [1] (setting [6]), the “second plasma peak (time after administration)” value was 8 h. Further, in data set [1] (setting [3]), the cmax was determined as 627 ng/mL and the tmax came out at 1.0 h. Also, in data set [1] (setting [4]), the MRT was found to be 5.9 h, the clast worked out at 3.4 ng/mL, the AUC0-inf was 3547 ng·h/mL and the tlast is recorded as 24.0 h. The AUC0-t in data set [1] (setting [4]) came out at 3535 ng·h/mL.

These data come from US11453642B2, “Oxygenated amino- or ammonium-containing sulfonic acid, phosphonic acid and carboxylic acid derivatives and their medical use” (GRI BIO, INC., priority 2011, dated 2022).
